Measured values from patent US8703796B2, “3H-imidazo [4, 5-B] pyridine-6-carboxamides as anti-inflammatory agents” (Boehringer Ingelheim International GmbH, priority 2008, dated 2014).

The compounds below were run against T1, recombinant human mPGES-1 (Homo sapiens, UniProt O14684) (assay: mPGES-1 inhibition, HTRF detection of PGE2).
T1 construct: made in house; host or cells: Rosetta E. coli (microsomal/membrane fraction)
T1 sequence (O14684 1-152): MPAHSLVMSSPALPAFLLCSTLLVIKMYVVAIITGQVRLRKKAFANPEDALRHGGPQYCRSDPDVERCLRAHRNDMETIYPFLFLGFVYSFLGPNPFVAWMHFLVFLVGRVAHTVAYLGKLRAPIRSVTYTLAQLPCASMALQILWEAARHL
Type: biochemical
Procedure, shortened: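 Microsomes from E. coli expressing recombinant human mPGES-1 in 0.1 M KPi pH 7.4 with 2.5 mM GSH were preincubated with inhibitor 25 min at room temperature. PGH2 was then added, and the reaction was stopped after 1 min with acidified FeCl2. PGE2 was quantified by HTRF (665/620 nm ratio) against a synthetic PGE2 standard curve.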

Structure (SMILES) | inhibition at 10 µM [%]
Cn1c(Nc2c(Cl)cncc2Cl)nc2cc(C(=O)N[C@H]3CC[C@H](C(F)(F)F)CC3)c(OC3CCOC3)nc21 (stereo partly drawn) [Example 846, 2-(3,5-Dichloro-pyridin-4-ylamino)-5-(tetrahydrofuran-3-yl-oxy)-N-(trans-4-trifluoromethyl-cyclohexyl)-3-methyl-3H-imidazo[4,5-b]pyridine-6-carboxamide] | 100
Cn1c(Nc2c(Cl)cncc2Cl)nc2cc(C(=O)NCc3ncccc3C(F)(F)F)c(OC3CCOC3)nc21 (centres unmarked) [Example 847, 2-(3,5-Dichloro-pyridin-4-ylamino)-5-(tetrahydrofuran-3-yl-oxy)-N-((3-trifluoromethyl-pyridin-2-yl)-methyl)-3-methyl-3H-imidazo[4,5-b]pyridine-6-carboxamide] | 100
Cn1c(Nc2c(Cl)cncc2Cl)nc2cc(C(=O)Nc3ccc(Br)cc3)c(OC3CCOC3)nc21 (centres unmarked) [Example 848, 2-(3,5-Dichloro-pyridin-4-ylamino)-5-(tetrahydrofuran-3-yl-oxy)-N-(4-bromo-phenyl)-3-methyl-3H-imidazo[4,5-b]pyridine-6-carboxamide] | 100
Cn1c(Nc2c(Cl)cncc2Cl)nc2cc(C(=O)NCC(F)(F)C(F)(F)C(F)(F)C(F)(F)F)c(OC3CCOC3)nc21 (centres unmarked) [Example 849, 2-(3,5-Dichloro-pyridin-4-ylamino)-5-(tetrahydrofuran-3-yl-oxy)-N-(2,2,3,3,4,4,5,5,5-nonafluoro-pentyl)-3-methyl-3H-imidazo[4,5-b]pyridine-6-carboxamide] | 98
Cn1c(Nc2c(Cl)cncc2Cl)nc2cc(C(=O)NCC(F)(F)C(F)(F)C(F)(F)C(F)(F)F)c(OCC(F)(F)F)nc21 [Example 850, 2-(3,5-Dichloro-pyridin-4-ylamino)-5-(2,2,2-trifluoro-ethoxy)-N-(2,2,3,3,4,4,5,5,5-nonafluoro-pentyl)-3-methyl-3H-imidazo[4,5-b]pyridine-6-carboxamide] | 99
Cn1c(Nc2c(Cl)cncc2Cl)nc2cc(C(=O)NCc3ncccc3C(F)(F)F)c(OCC(F)(F)F)nc21 [Example 851, 2-(3,5-Dichloro-pyridin-4-ylamino)-5-(2,2,2-trifluoro-ethoxy)-N-((3-trifluoromethyl-pyridin-2-yl)-methyl)-3-methyl-3H-imidazo[4,5-b]pyridine-6-carboxamide] | 98
Cn1c(Nc2c(Cl)cncc2Cl)nc2cc(C(=O)Nc3cc(C(F)(F)F)ccn3)c(OCC(F)(F)F)nc21 [Example 852, 2-(3,5-Dichloro-pyridin-4-ylamino)-5-(2,2,2-trifluoro-ethoxy)-N-(4-trifluoromethyl-pyridin-2-yl)-3-methyl-3H-imidazo[4,5-b]pyridine-6-carboxamide] | 95
O=C(NCc1ccccc1C(F)(F)F)c1cc2nc(Nc3c(Cl)cncc3Cl)[nH]c2nc1OCC(F)(F)F [Example 853, 2-(3,5-Dichloro-pyridin-4-ylamino)-5-(2,2,2-trifluoro-ethoxy)-N-(2-trifluoromethyl-benzyl)-3H-imidazo[4,5-b]pyridine-6-carboxamide] | 100
O=C(NCC(F)(F)C(F)(F)C(F)(F)C(F)(F)F)c1cc2nc(Nc3c(Cl)cncc3Cl)[nH]c2nc1OCC(F)(F)F [Example 854, 2-(3,5-Dichloro-pyridin-4-ylamino)-5-(2,2,2-trifluoro-ethoxy)-N-(2,2,3,3,4,4,5,5,5-nonafluoro-pentyl)-3H-imidazo[4,5-b]pyridine-6-carboxamide] | 96
O=C(NCc1ncccc1C(F)(F)F)c1cc2nc(Nc3c(Cl)cncc3Cl)[nH]c2nc1OCC(F)(F)F [Example 855, 2-(3,5-Dichloro-pyridin-4-ylamino)-5-(2,2,2-trifluoro-ethoxy)-N-((3-trifluoromethyl-pyridin-2-yl)-methyl)-3H-imidazo[4,5-b]pyridine-6-carboxamide] | 100
CCOc1nc2[nH]c(Nc3c(Cl)cncc3Cl)nc2cc1C(=O)Nc1ccc(Br)cc1 [Example 856, 2-(3,5-Dichloro-pyridin-4-ylamino)-5-ethoxy-N-(4-bromo-phenyl)-3H-imidazo[4,5-b]pyridine-6-carboxamide] | 93
O=C(Nc1cc(C(F)(F)F)ccn1)c1cc2nc(Nc3c(Cl)cncc3Cl)[nH]c2nc1OCC(F)(F)F [Example 857, 2-(3,5-Dichloro-pyridin-4-ylamino)-5-(2,2,2-trifluoro-ethoxy)-N-(4-trifluoromethyl-pyridin-2-yl)-3H-imidazo[4,5-b]pyridine-6-carboxamide] | 99
O=C(Nc1ccc(Br)cc1)c1cc2nc(Nc3c(Cl)cncc3Cl)[nH]c2nc1OCC(F)(F)F [Example 858, 2-(3,5-Dichloro-pyridin-4-ylamino)-5-(2,2,2-trifluoro-ethoxy)-N-(4-bromo-phenyl)-3H-imidazo[4,5-b]pyridine-6-carboxamide] | 100
O=C(N[C@H]1CC[C@H](C(F)(F)F)CC1)c1cc2nc(Nc3c(Cl)cncc3Cl)[nH]c2nc1OCC(F)(F)F [Example 859, 2-(3,5-Dichloro-pyridin-4-ylamino)-5-(2,2,2-trifluoro-ethoxy)-N-(trans-4-trifluoromethyl-cyclohexyl)-3H-imidazo[4,5-b]pyridine-6-carboxamide] | 89
COc1nc2c(cc1C(=O)NCc1ncccc1C(F)(F)F)nc(Nc1c(Cl)cccc1Cl)n2C [Example 860, 2-(2,6-Dichloro-phenylamino)-5-methoxy-N-((3-trifluoromethyl-pyridin-2-yl)-methyl)-3-methyl-3H-imidazo[4,5-b]pyridine-6-carboxamide] | 100
COc1nc2c(cc1C(=O)NCc1ccccc1C(F)(F)F)nc(Nc1c(Cl)cccc1Cl)n2C [Example 861, 2-(2,6-Dichloro-phenylamino)-5-methoxy-N-(2-trifluoromethyl-benzyl)-3-methyl-3H-imidazo[4,5-b]pyridine-6-carboxamide] | 100
O=C(N[C@H]1CC[C@H](C(F)(F)F)CC1)c1cc2nc(Nc3c(Cl)cncc3Cl)[nH]c2nc1OCC(F)F [Example 862, 2-(3,5-Dichloro-pyridin-4-ylamino)-5-(2,2-difluoro-ethoxy)-N-(trans-4-trifluoromethyl-cyclohexyl)-3H-imidazo[4,5-b]pyridine-6-carboxamide] | 99
Cn1c(Nc2c(Cl)cc(F)cc2Cl)nc2cc(C(=O)N[C@H]3CC[C@H](C(F)(F)F)CC3)c(OCC(F)F)nc21 [Example 863, 2-(2,6-Dichloro-4-fluoro-phenylamino)-5-(2,2-difluoro-ethoxy)-N-(trans-4-trifluoromethyl-cyclohexyl)-3-methyl-3H-imidazo[4,5-b]pyridine-6-carboxamide] | 82
CN(C)CCOc1nc2[nH]c(Nc3c(Cl)cc(F)cc3Cl)nc2cc1C(=O)N[C@H]1CC[C@H](C(F)(F)F)CC1 [Example 864, 2-(2,6-Dichloro-4-fluoro-phenylamino)-5-(2-dimethylamino-ethoxy)-N-(trans-4-trifluoromethyl-cyclohexyl)-3H-imidazo[4,5-b]pyridine-6-carboxamide] | 91
CN(C)CCOc1nc2c(cc1C(=O)N[C@H]1CC[C@H](C(F)(F)F)CC1)nc(Nc1c(Cl)cc(F)cc1Cl)n2C [Example 865, 2-(2,6-Dichloro-4-fluoro-phenylamino)-5-(2-dimethylamino-ethoxy)-N-(trans-4-trifluoromethyl-cyclohexyl)-3-methyl-3H-imidazo[4,5-b]pyridine-6-carboxamide] | 92
